From ChEMBL document CHEMBL1641603, “Inhibition of β-carbonic anhydrases with ureido-substituted benzenesulfonamides” (Bioorg Med Chem Lett, 2011)

Biological target: T1, PROBABLE TRANSMEMBRANE CARBONIC ANHYDRASE (CARBONATE DEHYDRATASE) (CARBONIC DEHYDRATASE) (Mycobacterium tuberculosis, UniProt P96878)
T1 sequence (P96878 whole entry): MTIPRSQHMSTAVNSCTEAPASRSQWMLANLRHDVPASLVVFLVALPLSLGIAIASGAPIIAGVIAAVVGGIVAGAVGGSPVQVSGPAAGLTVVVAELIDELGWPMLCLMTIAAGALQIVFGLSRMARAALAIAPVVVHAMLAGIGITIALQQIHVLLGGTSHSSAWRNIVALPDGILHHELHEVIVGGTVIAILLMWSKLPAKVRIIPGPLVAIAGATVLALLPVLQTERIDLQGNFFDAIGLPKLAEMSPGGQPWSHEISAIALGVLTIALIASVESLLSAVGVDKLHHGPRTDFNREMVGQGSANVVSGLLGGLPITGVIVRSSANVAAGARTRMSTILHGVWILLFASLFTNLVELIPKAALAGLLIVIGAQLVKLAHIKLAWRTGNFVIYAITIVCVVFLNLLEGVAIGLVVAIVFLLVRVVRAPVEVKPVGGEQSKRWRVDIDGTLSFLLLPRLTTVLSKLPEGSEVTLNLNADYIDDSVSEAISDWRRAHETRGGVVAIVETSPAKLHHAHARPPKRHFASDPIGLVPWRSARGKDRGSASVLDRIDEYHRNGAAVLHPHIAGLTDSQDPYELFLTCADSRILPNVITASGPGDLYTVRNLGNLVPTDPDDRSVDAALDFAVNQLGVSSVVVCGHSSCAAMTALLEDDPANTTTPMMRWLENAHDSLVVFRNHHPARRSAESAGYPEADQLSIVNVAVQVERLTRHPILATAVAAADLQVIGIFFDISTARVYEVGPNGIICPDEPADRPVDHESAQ

## Nc1ccc(S(N)(=O)=O)cc1 [SULFANILAMIDE]
  Ki: 6.24 µM
